# Tests used:
# [1] = Metabolic stability in human liver S-9 fractions; conditions: for Liver S-9 stability factor: % parent remaining after 30 min at 37 C divided by average % ranolazine remaining (57%), 10 μM, human liver S9 2 mg/mL
# Description: As a measure of metabolic stability the compounds of this invention were incubated with human liver S-9 microsomal fractions. After, 30 minutes at 37 C, the amount of parent drug remaining was determined using LC-mass spec. The response factors for each compound was determined by establishing a standard curve and using an internal standard during the analysis of the samples. […] The compounds of this invention were assayed as described in the protocol below and the percentage of parent remaining was divided by the average % of ranolazine remaining (57%) affording a metabolic stability factor.
# The following reagents were used; Potassium phosphate, 0.5M pH 74. (incubation buffer), kept at room temperature; 0.05M MgCl2 kept at 4° C.; β-Nicotinamide adenine dinucleotide phosphate, tetrasodium salt, reduced form (NADPH), 0.02M solution in water (˜16.6 mg/mL) from Sigma Lot #79H7044 prepared on day of use.
# Incubation mixtures were prepared as follows:
# Combine all components with incubation buffer and re-pipette 200 μL/tube+25 μL of the compound being tested along with 25 μL of S-9.
# After 5 min of pre-incubation at 37° C., at 0 and 30 min after starting the reaction, a 50 μl aliquot of the incubation mixture was removed and added to 100 μL of 9:1 acetonitrile: methanol containing the internal standard.
# The mixture was centrifuged and a 100 μL aliquot of the supernatant was diluted in 1 mL of solvent C (0.1% Formic Acid in water). Then samples were analyzed for change between the ratio of compound to internal standard at time zero and 30 minutes by LC/MS (injected 10 μL).
# Samples were analyzed for the starting compounds and potential metabolite/s by LC/MS using an internal standard on a Micromass platform mass spec with a Keystone Inc. BDS ODS-C18 column with a flow rate of 0.25 ml/min.
# [2] = test system: mitochondrial fatty acid oxidation using palmitoyl carnitine as substrate; experiment: Palmitoyl carnitine oxidation in isolated rat heart mitochondria; format: biochemical; conditions: 15 min at 30° C.
# Description: Rat heart mitochodria were isolated by the method of Nedergard and Cannon (Methods in Enzymol. 55, 3, 1979).
# The Palmitoyl carnitine oxidation was carried out in a total volume of 100 microliters containing the following agents: 110 mM KCl, 33 mM Tris buffer at pH 8, 2 mM KPi, 2 mM MgCl2, 0.1 mM EDTA, 0.1 mg/ml of defatted BSA, 0.5 mM malic acid, 3 mM ADP, 52 micrograms of mitochondrial protein, and 43 microM 1-C14 palmitoyl carnitine (Sp. Activity 60 mCi/mmole; 20 microCi/ml, using 5 microliters per assay). The compounds of this invention were added in a DMSO solution at the following concentrations: 100 microM, 30 microM, and 3 microM. In each assay, a DMSO control was used. After 15 min at 30° C., the enzymatic reaction was centrifuged (20,000 g for 1 min), and 70 microliters of the supernatant was added to an activated reverse phase silicic acid column (approximately 0.5 ml of silicic acid). The column was eluted with 2 ml of water, and 0.5 ml of the eluent was used for scintillation counting to determine the amount of C^14 trapped as C^14 bicarbonate ion. The data are presented as % activity of control.
Structure (SMILES),Liver S-9 stability factor [1],also measured
Cc1cccc(C)c1NC(=O)CN1CCN(CC(O)COC2CCCCC2)CC1 (stereo not drawn) [Compound 13],1.20,–
Cc1cccc(C)c1NC(=O)CN1CCN(CC(O)COC2CCCC2)CC1 (stereo not drawn) [Compound 12],1.48,–
Cc1cccc(C)c1NC(=O)CN1CCN(CC(O)COC(C)C)CC1 (stereo not drawn) [Compound 10],–,Mitochondrial fatty acid oxidation activity (% of control) ([2]; 100 μM compound): 80%
"Cc1cccc(C)c1NC(=O)CN1CCN(CC(O)COCc2ccc(-c3ccccc3)cc2)CC1 (stereo not drawn) [Compound 23, N-(2,6-dimethylphenyl)-2-(4-{2-hydroxy-3-[(4-phenylphenyl)methoxy]propyl}piperazinyl)acetamide]",0.05,–
"COc1ccccc1OCC(O)CN1CCN(CC(=O)Nc2c(C)cccc2C)CC1 (racemic) [Ranolazine, (±)-N-(2,6-dimethylphenyl)-4-[2-hydroxy-3-(2-methoxyphenoxy)propyl]-1-piperazineacetamide, reference compound]",1.0,"Mitochondrial fatty acid oxidation activity (% of control) ([2]; 30 μM compound): 98%; Mitochondrial fatty acid oxidation activity (% of control) ([2]; 100 μM compound): 63%; percentage of parent drug remaining at the 30 minute time point ([1]; human liver S-9, 30 minutes at 37 C, average of five experiments): 57%"

# The next lines start with results.
Liver S-9 stability factor [1],Structure (SMILES),also measured
1.0,"Cc1cccc(C)c1NC(=O)CN1CCN(CC(O)COCc2ccc(C(F)(F)F)cc2)CC1 (stereo not drawn) [Compound 17, N-(2,6-dimethylphenyl)-2-[4-(2-hydroxy-3-{[4-(trifluoromethyl)phenyl]methoxy}propyl)piperazinyl]acetamide]",–
0.61,"Cc1ccc(COCC(O)CN2CCN(CC(=O)Nc3c(C)cccc3C)CC2)cc1 (stereo not drawn) [Compound 22, N-(2,6-dimethylphenyl)-2-(4-{2-hydroxy-3-[(4-methylphenyl)methoxy]propyl}piperazinyl)acetamide]",–
0.02,"CCCCc1ccc(COCC(O)CN2CCN(CC(=O)Nc3c(C)cccc3C)CC2)cc1 (stereo not drawn) [Compound 24, N-(2,6-dimethylphenyl)-2-(4-{3-[(4-butylphenyl)methoxy]-2-hydroxypropyl}piperazinyl)acetamide]",–
0.01,"Cc1cccc(C)c1NC(=O)CN1CCN(CC(O)COCc2ccc3ccccc3c2)CC1 (stereo not drawn) [Compound 25, N-(2,6-dimethylphenyl)-2-{4-[2-hydroxy-3-(2-naphthylmethoxy)propyl]piperazinyl}acetamide]",–
